The record followed here is the supplement of paper PMC11061612.

Holding throughout (assay): Bliss excess, mean over the matrix (fraction); higher = more synergy
One experiment concerns HOS (Osteosarcoma). An outline of the steps:
(§1)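 Bliss excess equals the observed combination effect minus the expected value EA + EB − EA·EB, where EA and EB are the effects of each agent alone. Combination Emax is the second-highest inhibition within the matrix. Inhibition was scaled from CellTiter-Glo 2.0 luminescence, with 0 set by vehicle wells and 1 by blank wells, after 72 hours of two-drug dosing of cells plated in 1536-well plates.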

Experiment [1] has as its system LB831-BLC (Bladder Carcinoma). An outline of the steps: as §1
In the next experiment the test system is KELLY (Neuroblastoma). The gist of the method: as §1
Experiment [2] relates to NCI-H82 (Small Cell Lung Carcinoma). An outline of the steps: as §1
In experiment [3] the test system is HCC-78 (Lung Adenocarcinoma). An outline of the steps:
as §1

In experiment [4] the test system is LU-135 (Small Cell Lung Carcinoma). An outline of the steps:
as §1

The subject of experiment [5] is SNU-5 (Gastric Carcinoma). An outline of the steps: as §1
For experiment [6], the system named is RC-K8 (B-Cell Non-Hodgkin's Lymphoma). An outline of the steps: as §1
The test system of experiment [7] is KURAMOCHI (Ovarian Carcinoma). An outline of the steps: as §1
Experiment [8] deals with Daoy (Other Solid Carcinomas). An outline of the steps: as §1
Experiment [9] deals with RO82-W-1 (Thyroid Gland Carcinoma). The gist of the method: as §1
The test system of experiment [10] is Hs-578-T (Breast Carcinoma). The gist of the method: as §1
Experiment [11] relates to ME-1 (Acute Myeloid Leukemia). The gist of the method:
as §1

The test system of the next experiment is 42-MG-BA (Glioblastoma). The gist of the method:
as §1

Experiment [12] deals with COLO-205 (Colorectal Carcinoma). An outline of the steps: as §1
Experiment [13] relates to OVCA420 (Ovarian Carcinoma). An outline of the steps: as §1
Experiment [14] deals with CCRF-CEM (T-Lymphoblastic Leukemia). An outline of the steps: as §1
The subject of another experiment is AGS (Gastric Carcinoma). The gist of the method:
as §1

Experiment [15] concerns TE-15 (Esophageal Squamous Cell Carcinoma). An outline of the steps: as §1
A further experiment relates to T98G (Glioblastoma). An outline of the steps:
as §1

For the compound `CC1(C)CCC(CN2CCN(c3ccc(C(=O)NS(=O)(=O)c4ccc(NCC5CCOCC5)c([N+](=O)[O-])c4)c(Oc4cnc5[nH]ccc5c4)c3)CC2)=C(c2ccc(Cl)cc2)C1` [Venetoclax] + CN(C)CCCOc1ccc(-c2ccc3ncc4c(c3c2)n(C2CCOCC2)c(=O)n4C)cn1 [AZD0156] (first compound max 1 µM, 7x7, partner max 1 µM), the Bliss excess in the experiment on HOS (Osteosarcoma) was -0.033; in experiment [1], -0.061; with KELLY (Neuroblastoma) it was 0.0158; in [2], 0.0295; in experiment [3], 0.0213; in experiment [4] it was -0.0012. Further, the Bliss excess in experiment [5] was 0.0053; in [6] it was 0.0282; in [7], -0.0039; in experiment [8], -0.0076; in experiment [9], -0.0586; in experiment [10] it was -0.0426. Also, the Bliss excess in experiment [11] is -0.0045; with 42-MG-BA (Glioblastoma), 0.0057; in experiment [12], -0.0153; in experiment [13], -0.02; in [14] it was 0.0436; in the experiment on AGS (Gastric Carcinoma) it was -0.0191. The Bliss excess was -0.0298 in [15] and -0.0509 in the experiment with T98G (Glioblastoma).
Turning to `CC1(C)CCC(CN2CCN(c3ccc(C(=O)NS(=O)(=O)c4ccc(NCC5CCOCC5)c([N+](=O)[O-])c4)c(Oc4cnc5[nH]ccc5c4)c3)CC2)=C(c2ccc(Cl)cc2)C1` [Venetoclax] + COc1cc(Nc2ncc3c(n2)-c2ccc(Cl)cc2C(c2c(F)cccc2OC)=NC3)ccc1C(=O)O [Alisertib] (first compound max 1 µM, 7x7, partner max 10 µM), the Bliss excess was -0.0132 with HOS (Osteosarcoma); -0.0354 in experiment [1]; 0.0343 in the experiment on KELLY (Neuroblastoma); 0.0328 in experiment [2]; 0.0127 in experiment [3]; -0.0236 in experiment [4]. The Bliss excess in experiment [5] was -0.0218; in experiment [6], 0.024; in [7] it was -0.0992; in experiment [8] it was 0.105; in [9], -0.0658; in experiment [10], 0.107. The Bliss excess is 0.0669 in experiment [11]; 0.0468 in the experiment with 42-MG-BA (Glioblastoma); -0.0172 in experiment [12]; -0.025 in experiment [13]; -0.0493 in experiment [14]; 0.0353 with AGS (Gastric Carcinoma). For the same compound, the Bliss excess in experiment [15] was 0.0102; in the experiment on T98G (Glioblastoma), -0.0205.
On to `CC1(C)CCC(CN2CCN(c3ccc(C(=O)NS(=O)(=O)c4ccc(NCC5CCOCC5)c([N+](=O)[O-])c4)c(Oc4cnc5[nH]ccc5c4)c3)CC2)=C(c2ccc(Cl)cc2)C1` [Venetoclax] + C[C@@H]1COCCN1C2=NC(=NC(=C2)C3(CC3)[S@](=N)(=O)C)C4=C5C=CNC5=NC=C4 [AZD6738] (first compound max 1 µM, 7x7, partner max 10 µM), for which the Bliss excess in the experiment with HOS (Osteosarcoma) is -0.0099; in [1], 0.0045; with KELLY (Neuroblastoma), 0.0209; in experiment [2], 0.0098; in experiment [3], -0.0195; in experiment [4] it was 0.0538. Further, the Bliss excess in experiment [5] is -0.0437; in experiment [6], -0.0294; in experiment [7], -0.0451; in experiment [8], -0.028; in [9], -0.0504; in experiment [10], -0.122. For the same compound, the Bliss excess in experiment [11] was 0.0345; in the experiment on 42-MG-BA (Glioblastoma), -0.0057; in experiment [12] it was -0.0328; in experiment [13], 0.0047; in experiment [14], 0.0224; with AGS (Gastric Carcinoma), -0.0423. The Bliss excess was -0.0314 in [15] and -0.061 in the experiment on T98G (Glioblastoma).
As to `CC1(C)CCC(CN2CCN(c3ccc(C(=O)NS(=O)(=O)c4ccc(NCC5CCOCC5)c([N+](=O)[O-])c4)c(Oc4cnc5[nH]ccc5c4)c3)CC2)=C(c2ccc(Cl)cc2)C1` [Venetoclax] + C[C@@H](Nc1cc(F)cc(F)c1)c1cc(C(=O)N(C)C)cc2c(=O)cc(N3CCOCC3)oc12 [AZD8186] (first compound max 1 µM, 7x7, partner max 3 µM), the Bliss excess with HOS (Osteosarcoma) was -0.0262; in experiment [1] it was -0.0465; in the experiment on KELLY (Neuroblastoma), 0.0068; in experiment [2], -0.0452; in [3], -0.0337; in experiment [4] it was 0.121. Also, the Bliss excess in [5] was 0.0236; in experiment [6], 0.018; in [7], -0.0467; in experiment [8], -0.0073; in experiment [9], -0.0455; in experiment [10] it was -0.0314. Further, the Bliss excess is 0.0239 in experiment [11]; -0.0591 in the experiment with 42-MG-BA (Glioblastoma); 0.0279 in experiment [12]; -0.0285 in experiment [13]; 0.012 in experiment [14]; -0.0458 in the experiment on AGS (Gastric Carcinoma). For the same compound, the results for the Bliss excess (in experiment [15]; with T98G (Glioblastoma)) were -0.0307 and -0.0064, respectively.
Turning to `CC1(C)CCC(CN2CCN(c3ccc(C(=O)NS(=O)(=O)c4ccc(NCC5CCOCC5)c([N+](=O)[O-])c4)c(Oc4cnc5[nH]ccc5c4)c3)CC2)=C(c2ccc(Cl)cc2)C1` [Venetoclax] + Cc1cc2ncnn2cc1Nc1ncc2c(n1)n(C1CCOCC1)c(=O)n2C [AZD7648] (first compound max 1 µM, 7x7, partner max 10 µM), the Bliss excess in the experiment with HOS (Osteosarcoma) is -0.0019; in [1] it was -0.0497; with KELLY (Neuroblastoma) it was -0.0064; in [2], -0.0227; in [3], -0.017; in [4] it was -0.087. The Bliss excess is -0.0063 in experiment [5]; 0.0156 in experiment [6]; -0.0605 in [7]; -0.0129 in experiment [8]; -0.0346 in experiment [9]; -0.0162 in [10]. Further, the Bliss excess is 0.0319 in [11]; -0.0013 in the experiment with 42-MG-BA (Glioblastoma); -0.0584 in experiment [12]; -0.0089 in experiment [13]; 0.044 in experiment [14]; -0.0505 in the experiment with AGS (Gastric Carcinoma). Besides, the figures for the Bliss excess (in [15]; in the experiment with T98G (Glioblastoma)) were -0.0519 and -0.0693, respectively.
`CC1(C)CCC(CN2CCN(c3ccc(C(=O)NS(=O)(=O)c4ccc(NCC5CCOCC5)c([N+](=O)[O-])c4)c(Oc4cnc5[nH]ccc5c4)c3)CC2)=C(c2ccc(Cl)cc2)C1` [Venetoclax] + Cn1cnc2c(F)c(Nc3ccc(Br)cc3Cl)c(C(=O)NOCCO)cc21 [Selumetinib] (first compound max 1 µM, 7x7, partner max 3 µM): the Bliss excess is -0.0282 with HOS (Osteosarcoma); -0.0239 in experiment [1]; 0.009 in the experiment with KELLY (Neuroblastoma); -0.0125 in experiment [2]; -0.0329 in [3]; -0.0545 in experiment [4]. For the same compound, the Bliss excess was -0.0192 in experiment [5]; -0.0112 in [6]; -0.0333 in experiment [7]; -0.0185 in experiment [8]; -0.0552 in experiment [9]; 0.0045 in experiment [10]. Besides, the Bliss excess in experiment [11] is 0.055; with 42-MG-BA (Glioblastoma), -0.0279; in experiment [12] it was -0.0722; in experiment [13], -0.045; in [14], 0.0079; in the experiment with AGS (Gastric Carcinoma) it was -0.0792. Also, the Bliss excess is -0.0268 in [15] and -0.0186 in the experiment with T98G (Glioblastoma).
